Earlier results on 4 compounds are cited in patent US5135753A, “Method and therapeutic system for smoking cessation” (Pharmetrix Corporation, priority 1991, dated 1992).

Structures are written as SMILES.

The test system of data set [1] is skin. Conditions: average penetration rate through the skin; very approximate figures.
Data set [2] concerns smoking withdrawal symptoms. Particulars: low consistent blood levels of nicotine; craving may not be among the relieved symptoms.
Data set [3] relates to average adult.
Data set [4] relates to nicotinic cholinergic receptors in the CNS and at autonomic ganglia. Particulars: in 10 minutes.
In data set [5] the test system is human cadaver skin.
For data set [6] the following is noted: Russell.

As to `Clc1cccc(Cl)c1N=C1NCCN1` [clonidine], the skin flux in data set [1] is 0.5 μg/cm^2.h.

On to `C[C@]12CC[C@@H]3c4ccc(O)cc4CC[C@H]3[C@@H]1CC[C@@H]2O` [estradiol], for which the skin flux in data set [1] is 0.01-0.03 μg/cm^2.h.

For the compound `CN1CCCC1c1cccnc1` (stereo not shown) [nicotine], the “symptoms of nicotine withdrawal” value in data set [2] is “relieve some of the symptoms of nicotine withdrawal”. In addition, in data set [1], the skin flux is reported as 100-300 μg/cm^2.h. Besides, the lethal unit dose entry in data set [3] is “about 60 mg”. Also, the “rise in nicotine blood level required to obtain postsynaptic effects” value in data set [4] is “at least 10 ng/mL”. For the same compound, the “permeability at later times” value in data set [5] (at later times, "and more") was no less than 0.4 mg/cm^2.h. Moreover, in data set [5] (first day of patch use), the “permeability during the first day of patch use” value is reported as roughly 0.1 mg/cm^2.h. For the same compound, the “optimal steady-state blood level for nicotine replacement” value in data set [6] was 10 to 15 ng/mL.

With `O=[N+]([O-])OCC(CO[N+](=O)[O-])O[N+](=O)[O-]` [nitroglycerin], in data set [1], the skin flux is reported as 10-25 μg/cm^2.h.
